Measured values from patent publication US20090023704A1, “Novel Compounds 737” (ASTRAZENECA AB, priority 2007, published 2009).

target: T1, GABAB receptor (GABABR1a/GABABR2 heterodimer) (Homo sapiens, UniProt O75899+Q9UBS5); experiment: [35S]-GTPγS binding assay, potency of PAM (GABA dose-response curves with and without test compound); format: biochemical; conditions: potency of the positive allosteric modulator; GABA dose-response in presence of test compound
T1 construct: expressed in transfected cells
T1 sequence (Q9UBS5 15-961 limits assumed): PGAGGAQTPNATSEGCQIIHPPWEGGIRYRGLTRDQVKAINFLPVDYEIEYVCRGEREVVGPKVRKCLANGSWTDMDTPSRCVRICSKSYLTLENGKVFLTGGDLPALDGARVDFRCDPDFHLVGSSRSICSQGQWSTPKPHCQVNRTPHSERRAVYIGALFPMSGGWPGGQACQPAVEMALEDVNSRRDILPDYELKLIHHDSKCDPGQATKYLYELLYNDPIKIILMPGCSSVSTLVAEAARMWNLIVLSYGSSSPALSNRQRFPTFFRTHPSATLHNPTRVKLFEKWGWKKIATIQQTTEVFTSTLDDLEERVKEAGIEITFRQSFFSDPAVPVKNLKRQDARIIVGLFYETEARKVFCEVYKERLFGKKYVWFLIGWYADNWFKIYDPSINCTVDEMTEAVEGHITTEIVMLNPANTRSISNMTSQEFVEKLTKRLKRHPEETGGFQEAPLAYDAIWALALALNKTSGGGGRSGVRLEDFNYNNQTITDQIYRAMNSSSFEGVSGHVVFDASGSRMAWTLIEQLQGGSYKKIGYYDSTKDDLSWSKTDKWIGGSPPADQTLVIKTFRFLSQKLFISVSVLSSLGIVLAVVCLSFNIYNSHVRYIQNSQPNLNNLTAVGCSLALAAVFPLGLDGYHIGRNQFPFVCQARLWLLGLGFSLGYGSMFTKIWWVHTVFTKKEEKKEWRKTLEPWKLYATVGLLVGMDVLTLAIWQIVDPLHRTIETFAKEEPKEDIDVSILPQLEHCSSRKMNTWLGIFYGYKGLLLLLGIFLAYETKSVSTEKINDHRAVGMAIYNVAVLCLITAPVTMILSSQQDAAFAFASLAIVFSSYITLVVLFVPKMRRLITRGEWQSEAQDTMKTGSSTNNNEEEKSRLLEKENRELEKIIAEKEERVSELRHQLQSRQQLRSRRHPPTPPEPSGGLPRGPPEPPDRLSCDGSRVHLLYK
T1 sequence (O75899 42-941): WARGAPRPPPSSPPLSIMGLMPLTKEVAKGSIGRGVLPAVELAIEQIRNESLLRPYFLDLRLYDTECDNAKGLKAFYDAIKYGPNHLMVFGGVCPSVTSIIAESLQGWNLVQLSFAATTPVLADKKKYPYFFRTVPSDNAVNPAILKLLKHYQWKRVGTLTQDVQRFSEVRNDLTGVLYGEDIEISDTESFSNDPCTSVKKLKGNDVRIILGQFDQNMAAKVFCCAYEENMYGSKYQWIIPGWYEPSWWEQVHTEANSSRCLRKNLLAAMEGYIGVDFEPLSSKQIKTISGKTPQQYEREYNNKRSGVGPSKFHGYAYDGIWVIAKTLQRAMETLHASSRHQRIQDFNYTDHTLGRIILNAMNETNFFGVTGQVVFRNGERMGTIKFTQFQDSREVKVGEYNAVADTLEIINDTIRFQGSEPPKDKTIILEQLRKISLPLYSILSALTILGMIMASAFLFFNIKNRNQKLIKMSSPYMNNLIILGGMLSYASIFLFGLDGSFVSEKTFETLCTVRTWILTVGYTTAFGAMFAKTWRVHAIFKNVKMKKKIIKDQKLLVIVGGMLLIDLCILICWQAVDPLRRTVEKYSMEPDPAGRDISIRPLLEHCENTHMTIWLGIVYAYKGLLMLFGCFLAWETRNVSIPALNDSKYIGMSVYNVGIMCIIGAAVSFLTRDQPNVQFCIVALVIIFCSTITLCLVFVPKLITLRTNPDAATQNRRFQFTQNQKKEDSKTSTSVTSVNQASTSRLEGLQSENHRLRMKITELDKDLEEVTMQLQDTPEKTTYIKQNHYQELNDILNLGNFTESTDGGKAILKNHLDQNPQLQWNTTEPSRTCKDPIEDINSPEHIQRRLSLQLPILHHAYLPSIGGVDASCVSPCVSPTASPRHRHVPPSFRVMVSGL
How it was run: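 Membranes from human GABABR1a/GABABR2-expressing cell lines, one with a GABABR1a-Gαqi5mut fusion, were incubated at 30 °C for 45 min, pH 7.4, with 10 μM GDP and 0.53 nM [35S]-GTPγS. GABA (0.1 nM–1 mM) was added with or without PAM, and EC50 was obtained by 4-parameter logistic fit after filtration and scintillation counting.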

| EC50 [µM] | SMILES |
| --- | --- |
| 8.3 | CCCn1c(=O)n(Cc2ccc(Cl)cc2)c(=O)c2c1nc(N(C)CCOC)n2C [Example 91, 1-(4-chlorobenzyl)-8-[(2-methoxyethyl)(methyl)amino]-7-methyl-3-propyl-3,7-dihydro-1H-purine-2,6-dione] |
| 12.3 | CCc1nc2c(c(=O)n(Cc3ccc(Cl)cc3)c(=O)n2CC2OCCO2)n1C [Example 14, 1-(4-Chlorobenzyl)-3-(1,3-dioxolan-2-ylmethyl)-8-ethyl-7-methyl-3,7-dihydro-1H-purine-2,6-dione] |
| 9 | CCCn1c(=O)n(Cc2ccc(Cl)cc2)c(=O)c2c1nc(N1CCC[C@H]1CN1CCCC1)n2C [Example 94, 1-(4-chlorobenzyl)-7-methyl-3-propyl-8-[(2S)-2-(pyrrolidin-1-ylmethyl)pyrrolidin-1-yl]-3,7-dihydro-1H-purine-2,6-dione] |
